Measured values: the C3SDB collision cross section collection

settings: [M+H]+; instrument: TW; Major Mix IMS/Tof Calibration Kit (Waters)

With `CCN(CC)CCN1C(=O)CN=C(c2ccccc2F)c2cc(Cl)ccc21` [Flurazepam] as the compound, how does the “collision cross section (N2)” value read?
The value was 185.3 Å².

With `COc1ccc(Cl)cc1C(=O)NCCc1ccc(S(=O)(=O)NC(=O)NC2CCCCC2)cc1` [Glyburide] as the compound, how does the “collision cross section (N2)” value read?
Its value is 204.7 Å².

For `CN1CC[C@]23c4c5ccc(O)c4O[C@H]2C(=O)CC[C@H]3[C@H]1C5` [Hydromorphone], which “collision cross section (N2)” value is on record?
The value was 163.9 Å².

For `CCN(CCO)CCCC(C)Nc1ccnc2cc(Cl)ccc12` (stereo not drawn) [Hydroxychloroquine], which “collision cross section (N2)” value is on record?
The value was 180.2 Å².

For `CNCCCN1c2ccccc2CCc2ccccc21` [Imipramine-M Nor], which “collision cross section (N2)” value is on record?
The value was 163.3 Å².

For `Cc1cc(C(=O)NNCc2ccccc2)no1` [Isocarboxazid], which “collision cross section (N2)” value is on record?
The value was 152.1 Å².

For `CCC(=O)C1(c2cccc(O)c2)CCN(C)CC1` [Ketobemidone], which “collision cross section (N2)” value is on record?
Its value is 159.7 Å².

Which “collision cross section (N2)” value does the source give for `CC(CCc1ccccc1)NCC(O)c1ccc(O)c(C(N)=O)c1` (stereo not drawn) [Labetalol] here?
The value was 178.1 Å².

Which “collision cross section (N2)” value does the source give for `Nc1nnc(-c2cccc(Cl)c2Cl)c(N)n1` [Lamotrigine] here?
Its value is 151.2 Å².

Which “collision cross section (N2)” value does the source give for `COC(=O)C1=C(C)NC(C)=C(C(=O)OC(C)(C)CN(C)CCC(c2ccccc2)c2ccccc2)C1c1cccc([N+](=O)[O-])c1` (stereo not drawn) [Lercanidipine] here?
Its value is 249.8 Å².

For `CNC[C@@H](C)CN1c2ccccc2S(=O)c2ccc(OC)cc21` (stereo partly drawn) [Levomepromazine-M N-desmethyl sulfoxide], which “collision cross section (N2)” value is on record?
The value was 172.9 Å².

Which “collision cross section (N2)” value does the source give for `CN1CC[C@]23CCCC[C@H]2[C@H]1Cc1ccc(O)cc13` [Levorphanol] here?
The value was 161.7 Å².

For `NC(=O)C(CCN1CCC(O)(c2ccc(Cl)cc2)CC1)(c1ccccc1)c1ccccc1` [Loperamid-M didesmethyl], which “collision cross section (N2)” value is on record?
The value was 211.9 Å².

With `CN1CCN(C2=Nc3ccccc3Oc3ccc(Cl)cc32)CC1` [Loxapine] as the compound, how does the “collision cross section (N2)” value read?
The value was 175.7 Å².

For `CNCCCC1(C2=CC=CC=C32)CC[C@H]3C4=CC=CC=C14` [Maprotiline], which “collision cross section (N2)” value is on record?
The value was 164.2 Å².

With `COc1ccc2[nH]cc(CCNC(C)=O)c2c1` [Melatonin] as the compound, how does the “collision cross section (N2)” value read?
Its value is 153.4 Å².

With `CC1CCN(CCCC(=O)c2ccc(F)cc2)CC1` [Melperone] as the compound, how does the “collision cross section (N2)” value read?
Its value is 163.5 Å².

For `C[C@]12C[C@@H]3C[C@](C)(C1)C[C@@](N)(C3)C2` [Memantine], which “collision cross section (N2)” value is on record?
The value was 146.6 Å².

Which “collision cross section (N2)” value does the source give for `CNC(C)C(=O)c1ccc(C)cc1` (stereo not drawn) [Mephedrone] here?
The value was 143.1 Å².

For `Cc1cccc(C)c1NC(=O)C1CCCCN1C` (stereo not drawn) [Mepivacaine], which “collision cross section (N2)” value is on record?
Its value is 159.1 Å².

With `CN(Cc1cnc2nc(N)nc(N)c2n1)c1ccc(C(=O)N[C@@H](CCC(=O)O)C(=O)O)cc1` [Methotrexate] as the compound, how does the “collision cross section (N2)” value read?
Its value is 196.2 Å².

For `CNC(C)C(=O)c1ccc2c(c1)OCO2` (stereo not drawn) [Methylone], which “collision cross section (N2)” value is on record?
Its value is 147.3 Å².

With `C[C@]12CCC(=O)C=C1CC[C@@H]1[C@@H]2CC[C@@]2(C)[C@H]1CC[C@]2(C)O` [Methyltestosterone] as the compound, how does the “collision cross section (N2)” value read?
The value was 176 Å².

For `COCCc1ccc(OCC(O)CNC(C)C)cc1` (stereo not drawn) [Metoprolol], which “collision cross section (N2)” value is on record?
The value was 172.7 Å².

Which “collision cross section (N2)” value does the source give for `O=C(NCCN1CCOCC1)c1ccc(Cl)cc1` [Moclobemide] here?
Its value is 162.5 Å².

For `CC(C)(O)c1ccccc1CC[C@@H](SCC1(CC(=O)O)CC1)c1cccc(/C=C/c2ccc3ccc(Cl)cc3n2)c1` [Montelukast], which “collision cross section (N2)” value is on record?
Its value is 243 Å².

Which “collision cross section (N2)” value does the source give for `CCN(CC)[C@@H](C)[C@H](O)c1ccccc1` [N-diethylnorephedrine] here?
Its value is 144.6 Å².

With `CC(C)(C)NCC(O)COc1cccc2c1C[C@H](O)[C@H](O)C2` (stereo partly drawn) [Nadolol] as the compound, how does the “collision cross section (N2)” value read?
The value was 172 Å².

Which “collision cross section (N2)” value does the source give for `O=C1CC[C@@]2(O)[C@H]3Cc4ccc(O)c5c4[C@@]2(CCN3CC2CC2)[C@H]1O5` [Naltrexone] here?
Its value is 176.5 Å².

With `c1ccc2c(CC3=NCCN3)cccc2c1` [Naphazoline] as the compound, how does the “collision cross section (N2)” value read?
Its value is 149.6 Å².

Which “collision cross section (N2)” value does the source give for `CNS(=O)(=O)CCc1ccc2[nH]cc(C3CCN(C)CC3)c2c1` [Naratriptan] here?
Its value is 174.3 Å².

Which “collision cross section (N2)” value does the source give for `COC(=O)C1=C(C)NC(C)=C(C(=O)OCCN(C)Cc2ccccc2)C1c1cccc([N+](=O)[O-])c1` (stereo not drawn) [Nicardipine] here?
The value was 212.1 Å².

Which “collision cross section (N2)” value does the source give for `O=C1CN=C(c2ccccc2)c2cc([N+](=O)[O-])ccc2N1` [Nitrazepam] here?
The value was 163.6 Å².

Which “collision cross section (N2)” value does the source give for `COc1ccc2c3c1O[C@H]1[C@@H](O)C=C[C@H]4[C@@H](C2)NCC[C@@]341` [Norcodeine] here?
Its value is 166.1 Å².

Which “collision cross section (N2)” value does the source give for `Cc1nccn1CC1CCc2c(c3ccccc3n2C)C1=O` (stereo not drawn) [Ondansetron] here?
Its value is 171.7 Å².

For `C=CCOc1ccccc1OCC(O)CNC(C)C` (stereo not drawn) [Oxprenolol], which “collision cross section (N2)” value is on record?
The value was 161.7 Å².

For `CN1CC[C@]23c4c5ccc(O)c4O[C@H]2C(=O)CC[C@@]3(O)[C@H]1C5` [Oxymorphone], which “collision cross section (N2)” value is on record?
The value was 164.6 Å².

For `CC(=O)Nc1ccc(O)cc1` [Paracetamol], which “collision cross section (N2)” value is on record?
The value was 132.2 Å².

With `CCCN1C[C@H](CSC)C[C@@H]2c3cccc4[nH]cc(c34)C[C@H]21` [Pergolide] as the compound, how does the “collision cross section (N2)” value read?
Its value is 177.9 Å².

With `CCOC(=O)C1(c2ccccc2)CCN(C)CC1` [Pethidine] as the compound, how does the “collision cross section (N2)” value read?
Its value is 158.5 Å².

With `CC(C)NCC(O)COc1cccc2[nH]ccc12` (stereo not drawn) [Pindolol] as the compound, how does the “collision cross section (N2)” value read?
Its value is 159.1 Å².

Which “collision cross section (N2)” value does the source give for `NC(=O)C1(N2CCCCC2)CCN(CCCC(=O)c2ccc(F)cc2)CC1` [Pipamperone] here?
The value was 194.1 Å².

With `CN1CCC(=C2c3ccccc3CCc3sccc32)CC1` [Pizotifen] as the compound, how does the “collision cross section (N2)” value read?
Its value is 175.4 Å².

For `CC(CN1c2ccccc2Sc2ccccc21)N(C)C` (stereo not drawn) [Promethazine], which “collision cross section (N2)” value is on record?
Its value is 163.7 Å².

Which “collision cross section (N2)” value does the source give for `CC(C)NCC(O)COc1cccc2ccccc12` (stereo not drawn) [Propranolol] here?
The value was 162.7 Å².

For `Fc1ccccc1C1=NCC(=S)N(CC(F)(F)F)c2ccc(Cl)cc21` [Quazepam], which “collision cross section (N2)” value is on record?
Its value is 174.9 Å².

Which “collision cross section (N2)” value does the source give for `OCCOCCN1CCN(C2=Nc3ccccc3Sc3ccccc32)CC1` [Quetiapine] here?
The value was 192.9 Å².

With `CCOc1ccccc1O[C@H](c1ccccc1)[C@H]1CNCCO1` [Reboxetine] as the compound, how does the “collision cross section (N2)” value read?
Its value is 174 Å².

With `Cc1nc2n(c(=O)c1CCN1CCC(c3noc4cc(F)ccc34)CC1)CCCC2O` (stereo not drawn) [Risperidone-M 9-hydroxy] as the compound, how does the “collision cross section (N2)” value read?
The value was 209.9 Å².

For `O=C(O)C(c1ccccc1)C1CCCCN1` (stereo not drawn) [Ritalinic acid], which “collision cross section (N2)” value is on record?
The value was 150 Å².

For `CN(C)CCc1c[nH]c2ccc(Cn3cncn3)cc12` [Rizatriptan], which “collision cross section (N2)” value is on record?
Its value is 160.3 Å².

For `CCCN(CCC)CCc1cccc2c1CC(=O)N2` [Ropinirole], which “collision cross section (N2)” value is on record?
The value was 163.8 Å².

For `NC(=O)c1cn(Cc2c(F)cccc2F)nn1` [Rufinamide], which “collision cross section (N2)” value is on record?
The value was 148.6 Å².

For `O=C1NCCN1CCN1CCC(c2cn(-c3ccc(F)cc3)c3ccc(Cl)cc23)CC1` [Sertindol], which “collision cross section (N2)” value is on record?
The value was 215.9 Å².

For `CC(C)CC(N(C)C)C1(c2ccc(Cl)cc2)CCC1` (stereo not drawn) [Sibutramine], which “collision cross section (N2)” value is on record?
The value was 168 Å².

With `CCCc1nn(C)c2c(=O)[nH]c(-c3cc(S(=O)(=O)N4CCN(C)CC4)ccc3OCC)nc12` [Sildenafil] as the compound, how does the “collision cross section (N2)” value read?
Its value is 212.7 Å².

With `COc1ncnc(NS(=O)(=O)c2ccc(N)cc2)c1OC` [Sulfadoxine] as the compound, how does the “collision cross section (N2)” value read?
The value was 165.3 Å².

With `Nc1ccc(S(=O)(=O)Nc2ccccn2)cc1` [Sulfapyridine] as the compound, how does the “collision cross section (N2)” value read?
Its value is 150.8 Å².

For `CN1CC(=O)N2[C@H](c3ccc4c(c3)OCO4)c3[nH]c4ccccc4c3C[C@@H]2C1=O` [Tadalafil], which “collision cross section (N2)” value is on record?
Its value is 189.4 Å².

With `CC/C(=C(\c1ccccc1)c1ccc(OCCN(C)C)cc1)c1ccccc1` [Tamoxifen] as the compound, how does the “collision cross section (N2)” value read?
Its value is 197.1 Å².

Which “collision cross section (N2)” value does the source give for `CN1C(=O)C(O)N=C(c2ccccc2)c2cc(Cl)ccc21` (stereo not drawn) [Temazepam] here?
Its value is 166.1 Å².

Which “collision cross section (N2)” value does the source give for `CN1C(C(=O)Nc2ccccn2)=C(O)c2sccc2S1(=O)=O` [Tenoxicam] here?
Its value is 170.4 Å².

With `CC(C)(C)NCC(O)c1cc(O)cc(O)c1` (stereo not drawn) [Terbutaline] as the compound, how does the “collision cross section (N2)” value read?
Its value is 154.9 Å².

With `COc1cc2c(cc1OC)C1CC(=O)C(CC(C)C)CN1CC2` (stereo not drawn) [Tetrabenazine] as the compound, how does the “collision cross section (N2)” value read?
The value was 182.6 Å².

With `COc1ccc2c3c1O[C@H]1C(OC(C)=O)=CC[C@H]4[C@@H](C2)N(C)CC[C@]314` [Thebacon] as the compound, how does the “collision cross section (N2)” value read?
Its value is 178.2 Å².

For `Clc1ccc2nsnc2c1NC1=NCCN1` [Tizanidine], which “collision cross section (N2)” value is on record?
The value was 149.4 Å².

For `CCCCNC(=O)NS(=O)(=O)c1ccc(C)cc1` [Tolbutamide], which “collision cross section (N2)” value is on record?
Its value is 163 Å².

For `Cc1ccc(O)c([C@H](CCN(C(C)C)C(C)C)c2ccccc2)c1` [Tolterodine], which “collision cross section (N2)” value is on record?
The value was 182.1 Å².

For `CN(C)CC1CCCCC1(O)c1cccc(O)c1` (stereo not drawn) [Tramadol-M O-desmethyl], which “collision cross section (N2)” value is on record?
Its value is 157.4 Å².

With `COc1cccc([C@@]2(O)CCCC[C@@H]2CN(C)C)c1` [Tramadol] as the compound, how does the “collision cross section (N2)” value read?
Its value is 161.4 Å².

Which “collision cross section (N2)” value does the source give for `CCOC(=O)[C@H](CCc1ccccc1)N[C@@H](C)C(=O)N1[C@H](C(=O)O)C[C@H]2CCCC[C@@H]21` [Trandolapril] here?
The value was 203.5 Å².

With `NC1CC1c1ccccc1` (stereo not drawn) [Tranylcypromine] as the compound, how does the “collision cross section (N2)” value read?
Its value is 127.6 Å².

With `Cc1nnc2n1-c1ccc(Cl)cc1C(c1ccccc1Cl)=NC2` [Triazolam] as the compound, how does the “collision cross section (N2)” value read?
Its value is 172.4 Å².

For `CC(C)(C)NCC(O)c1ccccc1Cl` (stereo not drawn) [Tulobuterol], which “collision cross section (N2)” value is on record?
Its value is 150.5 Å².

With `CCCc1nc(C)c2c(=O)nc(-c3cc(S(=O)(=O)N4CCN(CC)CC4)ccc3OCC)[nH]n12` [Vardenafil] as the compound, how does the “collision cross section (N2)” value read?
Its value is 225.8 Å².

Which “collision cross section (N2)” value does the source give for `COc1ccc(C(CN(C)C)C2(O)CCCCC2)cc1` (stereo not drawn) [Venlafaxine] here?
The value was 171.6 Å².

For `COc1ccc(CCN(C)CCCC(C#N)(c2ccc(OC)c(OC)c2)C(C)C)cc1OC` (stereo not drawn) [Verapamil], which “collision cross section (N2)” value is on record?
The value was 210.2 Å².

For `CC(=O)CC(c1ccccc1)c1c(O)c2ccccc2oc1=O` (stereo not drawn) [Warfarin], which “collision cross section (N2)” value is on record?
Its value is 166.8 Å².
